Laboratory results reported in PubChem BioAssay AID256 (DTP/NCI, 2004).
Where “and” joins values, the source holds several entries; their conditions need not be identical. Equal values may be shown once. Inconclusive results and toxic doses are left out.

System: CD2F1 mice, L1210 leukemia ip, survival T/C
Experiment: NCI In Vivo Anticancer Drug Screen. Data for tumor model L1210 Leukemia (intraperitoneal) in CD2F1 (CDF1) mice
Conditions: higher = longer survival
Method in brief: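 Activity against a transplanted murine tumor was judged by comparing the compound group with a vehicle group. The outcome in the treated animals was divided by that in the controls.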

[1] = endpoint: mean survival time, dose: 12.5 mg/kg/injection, schedule: Q01DX001 (ip), vehicle: saline
[2] = endpoint: mean survival time, dose: 25.0 mg/kg/injection, schedule: Q01DX001 (ip), vehicle: saline
[3] = endpoint: mean survival time, dose: 100.0 mg/kg/injection, schedule: Q04DX003 (ip), vehicle: saline with Tween-80
[4] = endpoint: mean survival time, dose: 200.0 mg/kg/injection, schedule: Q04DX003 (ip), vehicle: saline with Tween-80
[5] = endpoint: mean survival time, dose: 400.0 mg/kg/injection, schedule: Q04DX003 (ip), vehicle: saline with Tween-80
[6] = endpoint: mean survival time, dose: 200.0 mg/kg/injection, schedule: Q01DX001 (ip), vehicle: saline with Tween-80
[7] = endpoint: mean survival time, dose: 400.0 mg/kg/injection, schedule: Q01DX001 (ip), vehicle: saline with Tween-80
[8] = endpoint: mean survival time, dose: 100.0 mg/kg/injection, schedule: Q01DX001 (ip), vehicle: saline with Tween-80
[9] = endpoint: mean survival time, dose: 75.0 mg/kg/injection, schedule: Q01DX001 (ip), vehicle: saline

Structure (SMILES): COc1ccc(C[C@H](N)C(=O)NC2C(CO)OC(n3cnc4c(N(C)C)ncnc43)C2O)cc1 (stereo not given in full)
- T/C (endpoint: median survival time, dose: 25.0 mg/kg/injection, schedule: Q01DX005 (ip), vehicle: water): 104 % of control
- T/C (endpoint: median survival time, dose: 50.0 mg/kg/injection, schedule: Q01DX005 (ip), vehicle: water): 111 % of control
- T/C (endpoint: median survival time, dose: 100.0 mg/kg/injection, schedule: Q01DX005 (ip), vehicle: water): 100 % of control

Structure (SMILES): Cc1cc(Br)cc(Br)c1OCC(=O)O
- T/C (endpoint: mean survival time, dose: 50.0 mg/kg/injection, schedule: Q01DX009 (ip), vehicle: Klucel (hydroxypropylcellulose) (HPC)): 96 % of control
- T/C (endpoint: mean survival time, dose: 100.0 mg/kg/injection, schedule: Q01DX009 (ip), vehicle: Klucel (hydroxypropylcellulose) (HPC)): 93 % of control
- T/C (endpoint: mean survival time, dose: 200.0 mg/kg/injection, schedule: Q01DX009 (ip), vehicle: Klucel (hydroxypropylcellulose) (HPC)): 96 % of control

Structure (SMILES): NC(CS)=NC1CN2CCC1CC2 (stereo not given)
- T/C (endpoint: mean survival time, dose: 50.0 mg/kg/injection, schedule: Q04DX002 (ip), vehicle: saline): 115 % of control
- T/C (endpoint: mean survival time, dose: 100.0 mg/kg/injection, schedule: Q04DX002 (ip), vehicle: saline): 101 % of control

Structure (SMILES): Cc1ccc(CNc2ccc(C)c(Cl)c2)cc1
- T/C (endpoint: mean survival time, dose: 100.0 mg/kg/injection, schedule: Q04DX003 (ip), vehicle: other): 101 % of control
- T/C (endpoint: mean survival time, dose: 200.0 mg/kg/injection, schedule: Q04DX003 (ip), vehicle: other): 97 % of control
- T/C (endpoint: mean survival time, dose: 400.0 mg/kg/injection, schedule: Q04DX003 (ip), vehicle: other): 96 % of control

Structure (SMILES): N=C(N)Cc1ccc(NC(=O)c2ccc(C(=O)Nc3ccc(CC(=N)N)cc3)cc2)cc1
- T/C (endpoint: mean survival time, dose: 7.2 mg/kg/injection, schedule: Q01DX009 (ip), vehicle: acetone): 102 % of control
- T/C (endpoint: mean survival time, dose: 10.8 mg/kg/injection, schedule: Q01DX009 (ip), vehicle: acetone): 121 % of control

Structure (SMILES): NC(=S)NNC(=O)c1ccccc1
- T/C (endpoint: mean survival time, dose: 100.0 mg/kg/injection, schedule: Q04DX003 (ip), vehicle: Klucel (hydroxypropylcellulose) (HPC)): 91 % of control
- T/C (endpoint: mean survival time, dose: 200.0 mg/kg/injection, schedule: Q04DX003 (ip), vehicle: Klucel (hydroxypropylcellulose) (HPC)): 91 % of control

Structure (SMILES): CN(CCCCN(C)CCOS(C)(=O)=O)CCOS(C)(=O)=O
- T/C (endpoint: mean survival time, dose: 0.4 mg/kg/injection, schedule: Q01DX009 (ip), vehicle: saline): 112 % of control
- T/C (endpoint: mean survival time, dose: 0.8 mg/kg/injection, schedule: Q01DX009 (ip), vehicle: saline): 115 % of control
- T/C (endpoint: mean survival time, dose: 3.6 mg/kg/injection, schedule: Q01DX001 (ip), vehicle: saline): 110 % of control
- T/C (endpoint: mean survival time, dose: 4.0 mg/kg/injection, schedule: Q01DX009 (ip), vehicle: saline): 103 % of control
- T/C (endpoint: mean survival time, dose: 8.3 mg/kg/injection, schedule: Q01DX001 (ip), vehicle: saline): 118 % of control
- T/C [1]: 150 % of control
- T/C [2]: 156 % of control

Structure (SMILES): CC[C@@]1(O)C[C@H](OC2CC(N(C)C)C(OC3CC(O)C(OC4CC(O)C(O)C(C)O4)C(C)O3)C(C)O2)c2c(cc3c(c2O)C(=O)c2c(O)ccc(O)c2C3=O)[C@H]1C(=O)OC (stereo not given in full)
- T/C (endpoint: mean survival time, dose: 3.8 mg/kg/injection, schedule: Q01DX001 (ip), vehicle: other): 117 % of control
- T/C (endpoint: mean survival time, dose: 7.5 mg/kg/injection, schedule: Q01DX001 (ip), vehicle: other): 120 % of control
- T/C (endpoint: mean survival time, dose: 15.0 mg/kg/injection, schedule: Q01DX001 (ip), vehicle: other): 96 % of control

Structure (SMILES): CC(=O)C(Cl)C(=O)c1c(C)[nH]n(-c2ccccc2)c1=O (stereo not given)
- T/C (endpoint: median survival time, dose: 25.0 mg/kg/injection, schedule: Q01DX005 (ip), vehicle: Klucel (hydroxypropylcellulose) (HPC)): 112 % of control
- T/C (endpoint: median survival time, dose: 50.0 mg/kg/injection, schedule: Q01DX005 (ip), vehicle: Klucel (hydroxypropylcellulose) (HPC)): 111 % of control
- T/C (endpoint: median survival time, dose: 100.0 mg/kg/injection, schedule: Q01DX005 (ip), vehicle: Klucel (hydroxypropylcellulose) (HPC)): 111 % of control

Structure (SMILES): NC(=O)/C=C1\NC(=O)CS1
- T/C (endpoint: mean survival time, dose: 100.0 mg/kg/injection, schedule: Q01DX009 (ip), vehicle: saline sonified): 97 % of control
- T/C [3]: 100 % of control
- T/C (endpoint: mean survival time, dose: 200.0 mg/kg/injection, schedule: Q01DX009 (ip), vehicle: saline sonified): 103 % of control
- T/C [4]: 91 % of control
- T/C (endpoint: mean survival time, dose: 400.0 mg/kg/injection, schedule: Q01DX009 (ip), vehicle: saline sonified): 88 % of control
- T/C [5]: 102 % of control

Structure (SMILES): CCCCN1C(=O)C(=O)N(c2cc(Cl)c(OC)cc2OC)C1=O
- T/C (endpoint: mean survival time, dose: 12.5 mg/kg/injection, schedule: Q01DX009 (ip), vehicle: saline with Tween-80): 103 % of control
- T/C (endpoint: mean survival time, dose: 25.0 mg/kg/injection, schedule: Q01DX009 (ip), vehicle: saline with Tween-80): 88 % of control
- T/C (endpoint: mean survival time, dose: 50.0 mg/kg/injection, schedule: Q01DX009 (ip), vehicle: saline with Tween-80): 93 % of control and 96 % of control

Structure (SMILES): CCCCCCCCCCCCCCOc1ccc(OCCCCCCCCCCC)cc1
- T/C [6]: 89 % of control
- T/C [7]: 89 % of control

Structure (SMILES): O=C(O)CC(Nc1sc([N+](=O)[O-])cc1[N+](=O)[O-])C(=O)O (stereo not given)
- T/C [8]: 98 % of control
- T/C [6]: 105 % of control
- T/C [7]: 102 % of control

Structure (SMILES): Nc1cccc(OCc2nc(N)nc(N)c2-c2ccc(Cl)cc2)c1
- T/C (endpoint: mean survival time, dose: 37.5 mg/kg/injection, schedule: Q01DX001 (ip), vehicle: saline): 96 % of control
- T/C [9]: 100 % of control
- T/C (endpoint: mean survival time, dose: 150.0 mg/kg/injection, schedule: Q01DX001 (ip), vehicle: saline): 91 % of control

Structure (SMILES): O=C(Nc1ccc(OCC2=NCCN2)cc1)c1ccc(C(=O)Nc2ccc(OCC3=NCCN3)cc2)cc1
- T/C (endpoint: median survival time, dose: 3.12 mg/kg/injection, schedule: Q01DX009 (ip), vehicle: saline with Tween-80): 102 % of control
- T/C (endpoint: median survival time, dose: 6.25 mg/kg/injection, schedule: Q01DX009 (ip), vehicle: saline with Tween-80): 96 % of control
- T/C (endpoint: median survival time, dose: 12.5 mg/kg/injection, schedule: Q01DX009 (ip), vehicle: saline with Tween-80): 98 % of control
- T/C (endpoint: median survival time, dose: 25.0 mg/kg/injection, schedule: Q01DX009 (ip), vehicle: saline with Tween-80): 101 % of control
- T/C (endpoint: median survival time, dose: 50.0 mg/kg/injection, schedule: Q01DX009 (ip), vehicle: saline with Tween-80): 98 % of control

Structure (SMILES): CCO[Si](OCC)OCC
- T/C [9]: 108 % of control

Structure (SMILES): N=C(N)SCCc1ccccc1
- T/C [1]: 95 % of control
- T/C [2]: 100 % of control
- T/C (endpoint: mean survival time, dose: 50.0 mg/kg/injection, schedule: Q01DX001 (ip), vehicle: saline): 103 % of control

Structure (SMILES): Nn1c(=O)[nH][nH]c1=O
- T/C (endpoint: mean survival time, dose: 100.0 mg/kg/injection, schedule: Q01DX009 (ip), vehicle: saline with Tween-80): 96 % of control
- T/C [3]: 93 % of control
- T/C (endpoint: mean survival time, dose: 200.0 mg/kg/injection, schedule: Q01DX009 (ip), vehicle: saline with Tween-80): 96 % of control
- T/C [4]: 93 % of control
- T/C (endpoint: mean survival time, dose: 400.0 mg/kg/injection, schedule: Q01DX009 (ip), vehicle: saline with Tween-80): 98 % of control
- T/C [5]: 98 % of control

Structure (SMILES): Cc1nocc1CC1=C2CCCC(=O)C2(C)CCC1=O (stereo not given)
- T/C (endpoint: mean survival time, dose: 100.0 mg/kg/injection, schedule: Q01DX001 (ip), vehicle: alcohol): 94 % of control
- T/C (endpoint: mean survival time, dose: 200.0 mg/kg/injection, schedule: Q01DX001 (ip), vehicle: alcohol): 92 % of control
- T/C (endpoint: mean survival time, dose: 400.0 mg/kg/injection, schedule: Q01DX001 (ip), vehicle: alcohol): 95 % of control

Structure (SMILES): CS(=O)(=O)OCC(=O)NCCCCNC(=O)COS(C)(=O)=O
- T/C (endpoint: mean survival time, dose: 100.0 mg/kg/injection, schedule: Q01DX001 (ip), vehicle: saline): 101 % of control
- T/C (endpoint: mean survival time, dose: 200.0 mg/kg/injection, schedule: Q01DX001 (ip), vehicle: saline): 101 % of control

Structure (SMILES): O=[N+]([O-])C/C=C(/C=Nc1ccc(Cl)cc1)[N+](=O)[O-]
- T/C (endpoint: mean survival time, dose: 100.0 mg/kg/injection, schedule: Q01DX009 (ip), vehicle: saline): 101 % of control
- T/C (endpoint: mean survival time, dose: 100.0 mg/kg/injection, schedule: Q04DX003 (ip), vehicle: saline): 105 % of control
- T/C (endpoint: mean survival time, dose: 200.0 mg/kg/injection, schedule: Q01DX009 (ip), vehicle: saline): 102 % of control
- T/C (endpoint: mean survival time, dose: 200.0 mg/kg/injection, schedule: Q04DX003 (ip), vehicle: saline): 97 % of control
- T/C (endpoint: mean survival time, dose: 400.0 mg/kg/injection, schedule: Q01DX009 (ip), vehicle: saline): 96 % of control
- T/C (endpoint: mean survival time, dose: 400.0 mg/kg/injection, schedule: Q04DX003 (ip), vehicle: saline): 97 % of control

Structure (SMILES): O=S(=O)(Nc1ccc(Cc2ccc(NS(=O)(=O)c3ccccc3)cc2)cc1)c1ccccc1
- T/C [8]: 88 % of control
- T/C [6]: 90 % of control
- T/C [7]: 88 % of control

Structure (SMILES): COCCCNCCCN1CC1
- T/C (endpoint: mean survival time, dose: 16.62 mg/kg/injection, schedule: Q01DX009 (ip), vehicle: saline): 115 % of control
- T/C (endpoint: mean survival time, dose: 31.25 mg/kg/injection, schedule: Q01DX009 (ip), vehicle: saline): 107 % of control
- T/C (endpoint: mean survival time, dose: 62.5 mg/kg/injection, schedule: Q01DX009 (ip), vehicle: saline): 94 % of control

Structure (SMILES): CC(=O)c1ccc2c(c1)Cc1cc(C(C)=O)ccc1-2
- T/C (endpoint: mean survival time, dose: 100.0 mg/kg/injection, schedule: Q04DX003 (ip), vehicle: saline sonified): 96 % of control
- T/C (endpoint: mean survival time, dose: 200.0 mg/kg/injection, schedule: Q04DX003 (ip), vehicle: saline sonified): 93 % of control
- T/C (endpoint: mean survival time, dose: 400.0 mg/kg/injection, schedule: Q04DX003 (ip), vehicle: saline sonified): 98 % of control
